Test results as given in the NIST ThermoML archive (doi:10.1021/je1001413).

Settings: Liquid, Vibrating tube method

CC(C)CCCCCCCOC(=O)c1ccccc1C(=O)OCCCCCCCC(C)C
Settings	mass density [kg/m3]
283.15 K, 100 kPa	974.5
283.15 K, 200 kPa	974.5
283.15 K, 400 kPa	974.6
283.15 K, 600 kPa	974.7
283.15 K, 800 kPa	974.9
283.15 K, 1010 kPa	975
283.15 K, 2000 kPa	975.5
283.15 K, 3020 kPa	976
283.15 K, 4000 kPa	976.6
283.15 K, 5000 kPa	977.1
283.15 K, 6000 kPa	977.7
283.15 K, 6980 kPa	978.2
283.15 K, 8010 kPa	978.7
283.15 K, 9020 kPa	979.3
283.15 K, 10030 kPa	979.8
283.15 K, 15000 kPa	982.4
283.15 K, 19970 kPa	985
283.15 K, 25030 kPa	987.3
283.15 K, 29980 kPa	989.8
283.15 K, 35030 kPa	992.1
283.15 K, 40000 kPa	994.5
283.15 K, 45030 kPa	996.6
283.15 K, 49980 kPa	998.8
283.15 K, 55030 kPa	1000.9
283.15 K, 59990 kPa	1002.6
283.15 K, 64990 kPa	1005.1
288.15 K, 100 kPa	970.7
288.15 K, 200 kPa	970.8
288.15 K, 420 kPa	970.9
288.15 K, 600 kPa	971
288.15 K, 790 kPa	971.1
288.15 K, 1000 kPa	971.2
288.15 K, 1990 kPa	971.7
288.15 K, 3020 kPa	972.3
288.15 K, 4010 kPa	972.9
288.15 K, 5000 kPa	973.4
288.15 K, 6010 kPa	974
288.15 K, 7020 kPa	974.5
288.15 K, 7980 kPa	975
288.15 K, 9000 kPa	975.5
288.15 K, 10000 kPa	976.1
288.15 K, 14990 kPa	978.7
288.15 K, 19970 kPa	981.4
288.15 K, 25000 kPa	983.8
288.15 K, 30000 kPa	986.4
288.15 K, 34990 kPa	988.8
288.15 K, 40020 kPa	991.1
288.15 K, 45000 kPa	993.3
288.15 K, 49980 kPa	995.7
288.15 K, 54980 kPa	997.7
288.15 K, 60000 kPa	999.9
288.15 K, 65000 kPa	1002
293.15 K, 100 kPa	967
293.15 K, 200 kPa	967.1
293.15 K, 400 kPa	967.2
293.15 K, 630 kPa	967.3
293.15 K, 790 kPa	967.4
293.15 K, 1000 kPa	967.5
293.15 K, 2010 kPa	968.1
293.15 K, 3020 kPa	968.7
293.15 K, 4020 kPa	969.2
293.15 K, 4970 kPa	969.8
293.15 K, 5980 kPa	970.3
293.15 K, 7020 kPa	970.9
293.15 K, 8000 kPa	971.5
293.15 K, 9020 kPa	972
293.15 K, 10010 kPa	972.6
293.15 K, 15010 kPa	975.2
293.15 K, 20000 kPa	977.9
293.15 K, 25030 kPa	980.5
293.15 K, 30020 kPa	983
293.15 K, 35030 kPa	985.4
293.15 K, 40010 kPa	987.8
293.15 K, 44980 kPa	990.1
293.15 K, 50020 kPa	992.4
293.15 K, 55020 kPa	994.6
293.15 K, 60020 kPa	996.8
293.15 K, 65000 kPa	998.9
298.15 K, 100 kPa	963.4
298.15 K, 200 kPa	963.4
298.15 K, 410 kPa	963.6
298.15 K, 620 kPa	963.7
298.15 K, 820 kPa	963.8
298.15 K, 1000 kPa	963.9
298.15 K, 2020 kPa	964.5
298.15 K, 3040 kPa	965
298.15 K, 4030 kPa	965.7
298.15 K, 4980 kPa	966.2
298.15 K, 6070 kPa	966.8
298.15 K, 7020 kPa	967.3
298.15 K, 8040 kPa	967.9
298.15 K, 9040 kPa	968.5
298.15 K, 10030 kPa	969
298.15 K, 15010 kPa	971.7
298.15 K, 19990 kPa	974.4
298.15 K, 25000 kPa	977
298.15 K, 30020 kPa	979.6
298.15 K, 35000 kPa	982.1
298.15 K, 40020 kPa	984.5
298.15 K, 44970 kPa	986.9
298.15 K, 49990 kPa	989.2
298.15 K, 54970 kPa	991.4
298.15 K, 60000 kPa	993.7
298.15 K, 65020 kPa	995.8
303.15 K, 100 kPa	959.7
303.15 K, 200 kPa	959.8
303.15 K, 400 kPa	959.9
303.15 K, 580 kPa	960
303.15 K, 800 kPa	960.2
303.15 K, 1000 kPa	960.3
303.15 K, 2000 kPa	960.9
303.15 K, 2990 kPa	961.4
303.15 K, 4000 kPa	962
303.15 K, 5000 kPa	962.6
303.15 K, 6000 kPa	963.2
303.15 K, 7000 kPa	963.8
303.15 K, 7980 kPa	964.3
303.15 K, 9000 kPa	964.9
303.15 K, 10020 kPa	965.5
303.15 K, 14970 kPa	968.2
303.15 K, 20010 kPa	971
303.15 K, 25030 kPa	973.6
303.15 K, 30020 kPa	976.3
303.15 K, 35000 kPa	978.8
303.15 K, 40000 kPa	981.2
303.15 K, 45000 kPa	983.6
303.15 K, 50010 kPa	986
303.15 K, 54980 kPa	988.3
303.15 K, 60000 kPa	990.5
303.15 K, 64990 kPa	992.7
308.15 K, 100 kPa	956.2
308.15 K, 200 kPa	956.2
308.15 K, 410 kPa	956.4
308.15 K, 610 kPa	956.5
308.15 K, 800 kPa	956.6
308.15 K, 1000 kPa	956.7
308.15 K, 2010 kPa	957.3
308.15 K, 3020 kPa	957.9
308.15 K, 4000 kPa	958.5
308.15 K, 5000 kPa	959.1
308.15 K, 6000 kPa	959.7
308.15 K, 7020 kPa	960.3
308.15 K, 8000 kPa	960.8
308.15 K, 9020 kPa	961.4
308.15 K, 10000 kPa	962
308.15 K, 15010 kPa	964.8
308.15 K, 19990 kPa	967.6
308.15 K, 25000 kPa	970.3
308.15 K, 30010 kPa	973
308.15 K, 35000 kPa	975.5
308.15 K, 39990 kPa	978
308.15 K, 44990 kPa	980.4
308.15 K, 50010 kPa	982.9
308.15 K, 55000 kPa	985.2
308.15 K, 60000 kPa	987.4
308.15 K, 65000 kPa	989.7
